What was measured:
Experiment in all cases: Kinase panel study
Format in all cases: biochemical
Conditions in all cases: read-out: Percentage of inhibition; for inhibition at 1 µM: 1000nM; for inhibition at 10 µM: 10000nM
MET M1250T = target: T1, MET M1250T (Homo sapiens, UniProt P08581, M1250T)
T1 construct: purchased Thermo Fisher Scientific
Method in brief: (§1)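 Kinase inhibition was determined by a contract provider in cell-free ZLyte or Adapta assays. Results are expressed as % inhibition at 10 or 1 µM.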

MARK4 = target: T2, MARK4 (Homo sapiens, UniProt Q96L34)
T2 construct: purchased Thermo Fisher Scientific
T2 sequence (Q96L34 1-752): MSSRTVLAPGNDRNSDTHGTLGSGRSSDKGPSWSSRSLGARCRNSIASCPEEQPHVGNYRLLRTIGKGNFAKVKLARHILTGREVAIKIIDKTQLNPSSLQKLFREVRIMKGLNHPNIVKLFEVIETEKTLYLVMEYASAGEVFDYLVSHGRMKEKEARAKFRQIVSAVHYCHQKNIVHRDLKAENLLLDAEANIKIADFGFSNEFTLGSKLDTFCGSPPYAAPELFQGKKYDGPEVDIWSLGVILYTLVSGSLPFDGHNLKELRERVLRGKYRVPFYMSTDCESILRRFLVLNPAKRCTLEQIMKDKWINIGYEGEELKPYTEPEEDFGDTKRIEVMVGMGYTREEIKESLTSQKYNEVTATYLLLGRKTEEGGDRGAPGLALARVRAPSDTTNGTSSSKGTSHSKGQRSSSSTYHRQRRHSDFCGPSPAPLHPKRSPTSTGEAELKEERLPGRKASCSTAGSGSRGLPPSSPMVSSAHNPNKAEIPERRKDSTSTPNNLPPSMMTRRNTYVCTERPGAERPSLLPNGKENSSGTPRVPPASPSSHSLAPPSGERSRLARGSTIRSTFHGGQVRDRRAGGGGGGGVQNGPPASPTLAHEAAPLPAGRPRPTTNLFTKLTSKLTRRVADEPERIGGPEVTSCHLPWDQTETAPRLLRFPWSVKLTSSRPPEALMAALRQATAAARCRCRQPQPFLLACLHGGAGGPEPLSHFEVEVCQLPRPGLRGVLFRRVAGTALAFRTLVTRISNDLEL
Method in brief: as §1

RPS6KA4 (MSK2) = target: T3, RPS6KA4 (MSK2) (Homo sapiens, UniProt O75676)
T3 construct: purchased Thermo Fisher Scientific
Method in brief: as §1

CSNK2A1 (CK2 alpha 1) = target: T4, CSNK2A1 (CK2 alpha 1) (Homo sapiens, UniProt P68400)
T4 construct: purchased Thermo Fisher Scientific
Method in brief: as §1

FGR = target: T5, FGR (Homo sapiens, UniProt P09769)
T5 construct: purchased Thermo Fisher Scientific
Method in brief: as §1

CDK6/cyclin D1 = target: T6, CDK6/cyclin D1 (Homo sapiens, UniProt Q00534)
T6 construct: purchased Thermo Fisher Scientific
Method in brief: as §1

CDK2/cyclin A = target: T7, CDK2/cyclin A (Homo sapiens, UniProt P24941)
T7 construct: purchased Thermo Fisher Scientific
Method in brief: as §1

PRKCQ (PKC theta) = target: T8, PRKCQ (PKC theta) (Homo sapiens, UniProt Q04759)
T8 construct: purchased Thermo Fisher Scientific
Method in brief: as §1

T6 sequence (Q00534 whole entry): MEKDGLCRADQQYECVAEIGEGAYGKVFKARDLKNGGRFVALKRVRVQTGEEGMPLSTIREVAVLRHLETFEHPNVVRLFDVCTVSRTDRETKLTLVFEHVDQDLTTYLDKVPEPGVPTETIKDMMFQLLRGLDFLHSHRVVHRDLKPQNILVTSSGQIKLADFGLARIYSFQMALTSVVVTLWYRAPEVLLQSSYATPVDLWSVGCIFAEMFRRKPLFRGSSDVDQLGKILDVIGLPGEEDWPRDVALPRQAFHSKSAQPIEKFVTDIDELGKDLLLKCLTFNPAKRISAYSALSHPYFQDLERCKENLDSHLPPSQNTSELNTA
T6 sequence (P24385 whole entry partner): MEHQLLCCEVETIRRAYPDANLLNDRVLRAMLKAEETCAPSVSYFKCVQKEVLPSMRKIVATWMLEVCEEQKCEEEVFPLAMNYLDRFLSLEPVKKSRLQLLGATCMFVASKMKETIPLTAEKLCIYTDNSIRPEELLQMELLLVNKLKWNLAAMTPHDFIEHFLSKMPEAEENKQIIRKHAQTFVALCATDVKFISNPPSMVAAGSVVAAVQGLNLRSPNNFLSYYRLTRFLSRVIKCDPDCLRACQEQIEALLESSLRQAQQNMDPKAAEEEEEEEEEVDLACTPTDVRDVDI
T4 sequence (P68400 whole entry): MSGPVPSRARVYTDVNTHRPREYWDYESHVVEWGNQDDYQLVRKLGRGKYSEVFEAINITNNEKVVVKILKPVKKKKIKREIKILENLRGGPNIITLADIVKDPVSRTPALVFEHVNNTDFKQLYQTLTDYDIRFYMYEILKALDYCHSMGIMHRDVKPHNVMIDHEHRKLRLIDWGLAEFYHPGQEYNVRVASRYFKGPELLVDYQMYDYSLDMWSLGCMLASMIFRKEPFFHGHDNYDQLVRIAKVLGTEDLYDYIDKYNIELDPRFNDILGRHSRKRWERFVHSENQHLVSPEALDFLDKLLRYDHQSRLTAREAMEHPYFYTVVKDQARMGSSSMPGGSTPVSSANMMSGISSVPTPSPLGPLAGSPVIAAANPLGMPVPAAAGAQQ
T3 sequence (O75676 whole entry): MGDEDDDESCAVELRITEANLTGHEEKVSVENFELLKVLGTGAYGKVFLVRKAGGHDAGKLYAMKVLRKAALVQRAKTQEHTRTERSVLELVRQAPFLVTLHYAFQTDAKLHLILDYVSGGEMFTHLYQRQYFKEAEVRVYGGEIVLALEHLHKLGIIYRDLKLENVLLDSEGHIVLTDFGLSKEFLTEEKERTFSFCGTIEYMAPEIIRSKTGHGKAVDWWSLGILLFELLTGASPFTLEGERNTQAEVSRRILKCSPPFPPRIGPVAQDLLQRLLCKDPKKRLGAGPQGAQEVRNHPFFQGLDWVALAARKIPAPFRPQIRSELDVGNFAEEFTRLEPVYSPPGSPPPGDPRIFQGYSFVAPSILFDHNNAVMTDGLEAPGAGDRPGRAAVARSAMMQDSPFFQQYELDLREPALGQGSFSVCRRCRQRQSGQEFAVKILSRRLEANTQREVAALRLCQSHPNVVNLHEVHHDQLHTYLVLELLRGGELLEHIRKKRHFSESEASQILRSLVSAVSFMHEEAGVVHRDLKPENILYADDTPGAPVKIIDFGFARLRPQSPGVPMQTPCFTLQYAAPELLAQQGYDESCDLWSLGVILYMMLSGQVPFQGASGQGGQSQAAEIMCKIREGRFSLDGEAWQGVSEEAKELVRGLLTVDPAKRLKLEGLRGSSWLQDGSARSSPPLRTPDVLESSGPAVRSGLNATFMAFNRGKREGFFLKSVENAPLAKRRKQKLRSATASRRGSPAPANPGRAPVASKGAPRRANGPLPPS
T8 sequence (Q04759 whole entry): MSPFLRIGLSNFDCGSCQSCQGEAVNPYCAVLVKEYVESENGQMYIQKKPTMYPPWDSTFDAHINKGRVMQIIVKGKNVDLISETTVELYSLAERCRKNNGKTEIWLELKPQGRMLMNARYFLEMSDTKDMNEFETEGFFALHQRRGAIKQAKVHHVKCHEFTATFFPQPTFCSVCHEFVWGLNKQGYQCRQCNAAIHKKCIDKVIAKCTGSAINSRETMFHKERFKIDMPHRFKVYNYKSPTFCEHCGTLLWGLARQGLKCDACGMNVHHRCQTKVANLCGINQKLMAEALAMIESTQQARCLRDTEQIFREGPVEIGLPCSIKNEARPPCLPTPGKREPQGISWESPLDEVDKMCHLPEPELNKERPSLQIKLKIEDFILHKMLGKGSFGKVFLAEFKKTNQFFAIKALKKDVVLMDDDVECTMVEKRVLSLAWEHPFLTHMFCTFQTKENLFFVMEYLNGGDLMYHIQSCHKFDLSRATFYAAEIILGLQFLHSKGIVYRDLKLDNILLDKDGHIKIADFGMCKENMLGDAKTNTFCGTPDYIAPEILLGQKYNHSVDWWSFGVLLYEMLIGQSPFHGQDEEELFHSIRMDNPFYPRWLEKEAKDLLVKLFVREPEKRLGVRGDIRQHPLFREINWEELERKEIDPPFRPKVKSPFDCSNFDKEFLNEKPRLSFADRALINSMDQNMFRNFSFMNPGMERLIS
T1 sequence (P08581 25-1390 M1250T): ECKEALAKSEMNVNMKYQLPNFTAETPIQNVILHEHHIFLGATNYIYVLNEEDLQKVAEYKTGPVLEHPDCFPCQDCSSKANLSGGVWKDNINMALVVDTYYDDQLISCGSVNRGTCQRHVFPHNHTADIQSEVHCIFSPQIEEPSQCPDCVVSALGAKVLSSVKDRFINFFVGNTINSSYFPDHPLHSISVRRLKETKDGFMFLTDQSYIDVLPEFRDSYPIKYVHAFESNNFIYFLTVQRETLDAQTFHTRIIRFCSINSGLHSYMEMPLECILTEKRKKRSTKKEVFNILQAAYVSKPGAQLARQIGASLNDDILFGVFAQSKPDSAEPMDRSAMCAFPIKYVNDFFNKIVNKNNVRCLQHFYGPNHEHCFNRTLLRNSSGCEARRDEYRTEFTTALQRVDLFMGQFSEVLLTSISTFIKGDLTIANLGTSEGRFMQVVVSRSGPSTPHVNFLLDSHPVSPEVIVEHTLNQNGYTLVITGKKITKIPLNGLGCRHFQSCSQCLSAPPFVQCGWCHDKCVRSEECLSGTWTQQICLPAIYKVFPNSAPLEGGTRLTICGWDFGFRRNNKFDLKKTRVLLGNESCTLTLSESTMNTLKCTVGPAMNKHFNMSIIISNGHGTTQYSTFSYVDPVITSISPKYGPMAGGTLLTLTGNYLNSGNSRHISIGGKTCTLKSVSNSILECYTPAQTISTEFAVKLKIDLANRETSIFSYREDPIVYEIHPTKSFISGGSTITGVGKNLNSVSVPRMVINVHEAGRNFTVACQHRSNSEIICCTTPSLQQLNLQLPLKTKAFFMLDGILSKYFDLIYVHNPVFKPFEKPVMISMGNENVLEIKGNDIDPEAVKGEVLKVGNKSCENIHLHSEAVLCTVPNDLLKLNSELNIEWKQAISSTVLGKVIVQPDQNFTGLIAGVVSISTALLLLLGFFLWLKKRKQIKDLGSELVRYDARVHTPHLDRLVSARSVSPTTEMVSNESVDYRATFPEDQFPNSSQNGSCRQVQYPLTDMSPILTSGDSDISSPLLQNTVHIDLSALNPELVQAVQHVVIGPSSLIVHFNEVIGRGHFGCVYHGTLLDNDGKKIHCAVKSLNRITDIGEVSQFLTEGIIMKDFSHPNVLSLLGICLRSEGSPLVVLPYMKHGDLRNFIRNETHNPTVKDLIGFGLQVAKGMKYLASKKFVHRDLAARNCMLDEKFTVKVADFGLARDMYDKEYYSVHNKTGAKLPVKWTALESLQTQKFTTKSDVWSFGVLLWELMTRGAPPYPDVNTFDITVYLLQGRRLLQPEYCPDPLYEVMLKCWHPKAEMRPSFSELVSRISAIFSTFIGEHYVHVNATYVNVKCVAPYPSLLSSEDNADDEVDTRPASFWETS
T5 sequence (P09769 whole entry): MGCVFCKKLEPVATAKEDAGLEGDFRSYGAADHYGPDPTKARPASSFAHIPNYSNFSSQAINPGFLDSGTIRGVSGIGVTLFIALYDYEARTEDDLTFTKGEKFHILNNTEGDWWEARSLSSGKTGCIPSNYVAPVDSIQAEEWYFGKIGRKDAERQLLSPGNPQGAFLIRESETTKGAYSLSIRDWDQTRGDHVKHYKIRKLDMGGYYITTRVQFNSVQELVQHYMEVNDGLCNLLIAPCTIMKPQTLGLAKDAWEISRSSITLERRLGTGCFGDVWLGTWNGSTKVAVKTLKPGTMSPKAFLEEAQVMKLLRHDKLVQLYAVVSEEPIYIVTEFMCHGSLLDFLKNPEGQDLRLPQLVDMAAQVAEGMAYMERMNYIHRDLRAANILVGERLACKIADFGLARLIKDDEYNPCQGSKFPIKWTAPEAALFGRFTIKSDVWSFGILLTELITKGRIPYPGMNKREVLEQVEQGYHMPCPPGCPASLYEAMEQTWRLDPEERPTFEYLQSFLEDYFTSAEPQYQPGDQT

COc1ccc2c(c1OC)c(=O)n1c3ccc(O)cc3c3ccnc2c31 [MW01, 5-Hydroxy-10,11-dimethoxy-9H-benzo[c]indolo[3,2,1-ij][1,5]naphthyridin-9-one]
inhibition at 1 µM (MET M1250T): 19%
inhibition at 10 µM (MET M1250T): 42%
inhibition at 1 µM (MARK4): 9%
inhibition at 10 µM (MARK4): 15%
inhibition at 1 µM (RPS6KA4 (MSK2)): 12%
inhibition at 10 µM (RPS6KA4 (MSK2)): 24%
inhibition at 1 µM (CSNK2A1 (CK2 alpha 1)): 9%
inhibition at 10 µM (CSNK2A1 (CK2 alpha 1)): 18%
inhibition at 1 µM (FGR): 10%
inhibition at 10 µM (FGR): 26%
inhibition at 1 µM (CDK6/cyclin D1): 1%
inhibition at 10 µM (CDK6/cyclin D1): -8%
inhibition at 1 µM (CDK2/cyclin A): 14%
inhibition at 10 µM (CDK2/cyclin A): 37%
inhibition at 1 µM (PRKCQ (PKC theta)): 4%
inhibition at 10 µM (PRKCQ (PKC theta)): 21%

COc1ccc2cc3c(N)nn(C(=O)c4cccc(N(C)C)c4)c3nc2c1 [MW05, (3-Amino-7-methoxypyrazolo[3,4-b]quinolin-1-yl)-[3-(dimethylamino)phenyl]methanone]
inhibition at 1 µM (MET M1250T): 1%
inhibition at 10 µM (MET M1250T): -15%
inhibition at 1 µM (MARK4): -3%
inhibition at 10 µM (MARK4): -10%
inhibition at 1 µM (RPS6KA4 (MSK2)): -3%
inhibition at 10 µM (RPS6KA4 (MSK2)): 4%
inhibition at 1 µM (CSNK2A1 (CK2 alpha 1)): 9%
inhibition at 10 µM (CSNK2A1 (CK2 alpha 1)): 5%
inhibition at 1 µM (FGR): 5%
inhibition at 10 µM (FGR): 15%
inhibition at 1 µM (CDK6/cyclin D1): 2%
inhibition at 10 µM (CDK6/cyclin D1): 0%
inhibition at 1 µM (CDK2/cyclin A): 12%
inhibition at 10 µM (CDK2/cyclin A): 25%
inhibition at 1 µM (PRKCQ (PKC theta)): 2%
inhibition at 10 µM (PRKCQ (PKC theta)): -15%

Reference: patent publication EP4467141A1, “PYRAZOLO-QUINOLINES AS SELECTIVE INHIBITORS OF GENOTOXIC STRESS-INDUCED IKK/NF- KB PATHWAYS FOR CANCER THERAPY” (Max-Delbrück-Centrum für Molekulare Medizin in der …, priority 2023, dated 2024)
